Measured values reported in patent US20040142994A1, “Azolylcarbynol derivatives of aryl (or heteroaryl) for the treatment of respiratory diseases” (priority 2001, published 2004).

Tests used:
[1] = Observation for possible sedative effects in the treated guinea-pigs; type: in vivo, guinea-pig; details: ip
Excerpt: To do this, the antitussive activity has been studied in guinea-pigs, simultaneously studying the possible sedative effects at the doses used in this study. The method used was the one described by Boura [Boura A L A, Green A F, Saunders I A (1970), An antitussive test using guinea-pigs. Br. J. Pharmacol., 39, 225P], con modificaciones más recientes [Adcock J J, Schneider C, Smith T W (1988), Effects of codeine, morphine a novel opioid pentapeptide BW443C, on cough, nociception and ventilation in the unanaesthetized guinea-pig. Br. J. Pharmacol., 93:93-100; Clay T P, Thompson M A (1985), Irritant induced cough as a model of intrapulmonary airway reactivity. Lung, 163:183-191; Forsberg K, Karlsson J-A, Theodorsson E; Lundberg J M; Persson C G A (1988), Cough and bronchoconstriction mediated by capsaicin-sensitive sensory neurons in the guinea-pig. Pulm Pharmacol, 1: 33-39; Gallico L, Borghi A, Dalla Rosa C, Ceserani R, Tognella S (1994), Moguisteine: a novel peripheral non-narcotic antitussive drug. […]
The guinea-pigs (250-400 g) were deprived of water and food 30 minutes before any intervention. […] During this period, the animals were observed continuously, the number of coughs was counted and the baseline value was taken as control. […] The antitussive activity was assessed for each guinea-pig as the reduction in the number of coughs compared to their previously recorded values. […]

[2] = system: cough induced by citric acid aerosol; test: Antitussive activity against cough induced by citric acid aerosol in guinea-pig; type: in vivo; details: ip; for N° of Coughs ± SEM: 30 min before citric acid aerosol (7.5% p/v), 12.5 min observation, N=10; for SD-50: antitussive activity, citric acid aerosol
Excerpt: To do this, the antitussive activity has been studied in guinea-pigs, simultaneously studying the possible sedative effects at the doses used in this study. The method used was the one described by Boura [Boura A L A, Green A F, Saunders I A (1970), An antitussive test using guinea-pigs. Br. J. Pharmacol., 39, 225P], con modificaciones más recientes [Adcock J J, Schneider C, Smith T W (1988), Effects of codeine, morphine a novel opioid pentapeptide BW443C, on cough, nociception and ventilation in the unanaesthetized guinea-pig. Br. J. Pharmacol., 93:93-100; Clay T P, Thompson M A (1985), Irritant induced cough as a model of intrapulmonary airway reactivity. Lung, 163:183-191; Forsberg K, Karlsson J-A, Theodorsson E; Lundberg J M; Persson C G A (1988), Cough and bronchoconstriction mediated by capsaicin-sensitive sensory neurons in the guinea-pig. Pulm Pharmacol, 1: 33-39; Gallico L, Borghi A, Dalla Rosa C, Ceserani R, Tognella S (1994), Moguisteine: a novel peripheral non-narcotic antitussive drug. Br. J. Pharmacol,112:795-800].
The guinea-pigs (250-400 g) were deprived of water and food 30 minutes before any intervention. The guinea-pigs, neither ligated nor anaesthetised, were individually placed in a perspex box (20×12×14 cm.) and left for an accommodation period of 15 minutes. After this period, the animals were exposed to an aerosol of an aqueous solution of citric acid (7.5% p/v, 0.39M). This concentration of citric acid is the minimum concentration capable of producing the maximum number of coughs during the observation period (Forsberg et al., 1988). The aerosol was generated for 2.5 minutes using an ultrasound nebulizer (De Vilbiss, Ultraneb 99; mean particle size 0.9 μm, with a flow of 0.5 ml/min.). The observation period with the animals exposed to the nebulized citric acid in the box was 12.5 minutes (2.5 minutes of aerosol production, followed by an additional 10 minutes). During this period, the animals were observed continuously, the number of coughs was counted and the baseline value was taken as control. Only the guinea-pigs that coughed between 15 and 30 times during the observation period were selected for the study. On the day after the selection the animals were randomly treated with the vehicle or with the study product thirty minutes before being exposed again to the citric acid aerosol. The antitussive activity was assessed for each guinea-pig as the reduction in the number of coughs compared to their previously recorded values. On the other hand, the animals were observed from the time of administration of the product until the end of the experiment for possible sedative effects.

CN(C)CCOC(c1ccccc1)c1ccnn1C.O=C(O)CC(O)(CC(=O)O)C(=O)O (racemic) [Product, (±)-5-{α-[2-(dimethylamine)ethoxy]benzyl}-1-methyl-1H pirazole citrate]
sedative effect ([1]; 10, 40 and 100 mg/kg): does not produce any sedative effect | sedative effect ([1]; maximum dose used 100 mg/kg): no sedative effect | N° of Coughs ± SEM ([2]; 10 mg/kg): 8.7 ± 0.7 | N° of Coughs ± SEM ([2]; 40 mg/kg): 4.3 ± 0.5 | N° of Coughs ± SEM ([2]; 100 mg/kg): 2.8 ± 0.4 | antitussive activity (in words) ([2]; 10, 40 and 100 mg/kg): good antitussive activity which is perfectly dose-related | inhibition at 10 mg/kg ([2]; Cavia porcellus, 10 mg/kg, inhibition of coughs): 37% | inhibition at 40 mg/kg ([2]; Cavia porcellus, 40 mg/kg, inhibition of coughs): 71% | inhibition at 100 mg/kg ([2]; Cavia porcellus, 100 mg/kg, inhibition of coughs): 80% | SD-50 [2]: 17.6 mg/kg, ip | SD-50 ([2]; listed as (±)-5-{α-[2(dimethylamine) ethoxy]benzyl}-1-methyl-1H-pirazole citrate): 17.6 mg/kg
